The text below walks through data of patent US10392352B2, “Etomidate derivative and intermediate, preparation method and use thereof” (JIANGSU NHWALUOKANG PHARMACEUTICAL RESEARCH AND DEVELOPMENT …, priority 2015, dated 2019).

For one data set, the system named is KM mice (male). In words: Test of ED50 and LD50 of anesthesia in mice (sequential method; disappearance of righting reflex or death). In kind it is in vivo. The following applies: for ED50: Mus musculus; for TI: TI=LD50/ED50, mice. The protocol: (§1) Test of ED50 and LD50 of the etomidate derivative of the present invention in mice
(§2) Accurately weighed compounds 14, 15, 16 and 18 (5 mg for each of the compounds) were placed in 10 ml centrifuge tubes, respectively. Then 1 ml blank emulsion (20% soybean oil blank emulsion) was added to each tube, and the mixture was sonicated in an ultrasonic apparatus for several minutes to obtain a 5 mg/ml homogeneous emulsion, which was drawn by an injection syringe right before use. An etomidate fat emulsion injection (commercially available, 2 mg/ml) was used as control. The administration concentration in mice was fixed, and the administration volume varied according to actual situation.
(§3) ED50 and LD50 values concerning anesthesia were determined using a sequential method. Administrations in this test were performed on qualified healthy KM mice (male) by injection at a constant rate via caudal vein for 10 seconds. Before the test, a preliminary trial test was conducted to determine an approximate dosage (administration volume) that leads to anesthetization (or death) in animals, which was then set as the intermediate dosage in the formal test. 2-3 Dosage groups were set above and below the intermediate dosage group with an interval of 0.8. The disappearance of righting reflex or death was used as indicators of pharmacological efficacy or toxicity, respectively. The formal test began with the administration of the intermediate dosage. If animals were anesthetized, a lower dosage was administered; otherwise if animals were not anesthetized, a higher dosage was administered, until the cycle was repeated for 3-4 times. LD50 and ED50 values of anesthesia were calculated by a sequential method on aot425 software. TI was calculated according to the following equation: TI=LD50/ED50.

Assay in data set [1]: as above
In kind it is in vivo. The settings on record: mouse, in vivo; male KM mice, caudal vein injection over 10 s, death, n = 10-20; range in brackets. Here is the method: as §1, §2, §3

For another data set, the system named is Male Kunming mice. The data set can be described thus: Test for latent period and persistent period of anesthesia in mice. The settings on record: 6 mg/kg (3*ED50), caudal vein, n = 5; for Latent period: time for disappearance of righting reflex; for Persistent period: time for recovery. In kind it is in vivo. Here is the method: Test of the etomidate derivative of the present invention for latent period and persistent period of anesthesia in mice
Male Kunming mice were divided into groups, 5 for each group. The test drug was administered by injection at a constant rate via caudal vein for 10 seconds. The time for disappearance of righting reflex (latent period) and the time for recovery (persistent period) were recorded.

A further data set has as its system mice. In words: Influence on the blood pressure and followed-up reactions after recovery in mice anesthesia test. In kind it is in vivo. The settings on record: for tail bleeding: few / tail bleeding: much / tail bleeding: none / tremor / grooming: after administration & before anesthesia.
The target of another data set is T1, 11β-hydroxylase (Homo sapiens, UniProt P15538).
T1 sequence (P15538 25-503): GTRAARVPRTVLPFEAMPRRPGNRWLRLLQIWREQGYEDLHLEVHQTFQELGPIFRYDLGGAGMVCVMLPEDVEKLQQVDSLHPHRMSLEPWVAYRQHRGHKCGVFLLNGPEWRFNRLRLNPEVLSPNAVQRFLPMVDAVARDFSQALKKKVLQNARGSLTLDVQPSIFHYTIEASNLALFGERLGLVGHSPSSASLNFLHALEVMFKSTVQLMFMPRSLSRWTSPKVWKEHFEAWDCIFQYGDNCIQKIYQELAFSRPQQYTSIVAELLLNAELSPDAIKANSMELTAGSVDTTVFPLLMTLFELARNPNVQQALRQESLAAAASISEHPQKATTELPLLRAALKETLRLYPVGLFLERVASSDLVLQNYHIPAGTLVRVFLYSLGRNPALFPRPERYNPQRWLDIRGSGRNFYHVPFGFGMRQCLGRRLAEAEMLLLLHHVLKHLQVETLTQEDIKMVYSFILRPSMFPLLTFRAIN
The following applies: background statement; cited from earlier work.

In data set [2] the test system is secretion of cortisol and/or corticosterone. The settings on record: background, literature; cited from earlier work.
The conditions of data set [3]: background, literature; cited from earlier work.

With `COC(=O)c1c(F)ncn1[C@H](C)c1ccccc1` [Compound 15, methyl R-1-(1-phenethyl)-1H-4-fluoroimidazole-5-carboxylate], in the data set with KM mice (male), the ED50 (in general, the dose that gives a 50% effect, or the effect in half of the subjects) turned out to be 2 mg/kg and the TI turned out to be 24. In addition, in data set [1], the LD50 (usually the dose at which mortality reaches 50%) came out at 48.4 mg/kg. In the data set with Male Kunming mice, the Walking time is reported as 68.80 ± 30.10 s, the Latent period was found to be 5.90 ± 0.88 s and the Persistent period was 83.60 ± 29.13 s. Moreover, in the data set with mice, the “tail bleeding: few” value was 50%, the “tail bleeding: much” value stood at 40%, the “tail bleeding: none” value is on record as 10% and the tremor is given as 70%. The compound further had a quiet in the data set on mice (post-recovery) of 100%.

With `CCOC(=O)c1c(F)ncn1[C@H](C)c1ccccc1` [Compound 16, ethyl R-1-(1-phenethyl)-1H-4-fluoroimidazole-5-carboxylate], in the data set on KM mice (male), the ED50 amounted to 2 mg/kg and the TI was found to be 23. This compound also came in with an LD50 in data set [1] of 46.5 mg/kg. Besides, in the data set on Male Kunming mice, the Walking time worked out at 98.10 ± 63.96 s, the Latent period came to 5.80 ± 0.79 s and the Persistent period was 82.10 ± 20.18 s. Further, in the data set on mice, the grooming was 10%, the “tail bleeding: few” value is given as 60%, the “tail bleeding: much” value is 30% and the “tail bleeding: none” value was 10%. The compound also displayed a tremor in the data set on mice of 70%. In the data set on mice (post-recovery), the jump is on record as 20% and the quiet is reported as 80%.

In the data set with KM mice (male), `CCOC(=O)c1cncn1[C@H](C)c1ccccc1` [Etomidate, ethyl R-(+)-1-(1-phenethyl)-1H-imidazole-5-carboxylate] showed an ED50 of 2 mg/kg and a TI of 25. This compound registered an LD50 in data set [1] of 50.3 mg/kg. In addition, in the data set with Male Kunming mice, the Walking time came to 156.30 ± 120.78 s, the Latent period was determined as 5.40 ± 0.52 s and the Persistent period is 175.50 ± 100.09 s. Further, in the data set with mice, the grooming is reported as 20%, the “tail bleeding: few” value worked out at 50%, the “tail bleeding: much” value is listed as 10% and the “tail bleeding: none” value amounted to 40%. This compound yielded a tremor in the data set with mice of 80%. Further, in the data set with mice (post-recovery), the convulsion was 10%, the jump is given as 40% and the quiet worked out at 50%. For the same compound, on 11β-hydroxylase, the “inhibitory effect on 11β-hydroxylase” value is listed as “inhibitory effect”. The “inhibitory effect on the secretion of cortisol and/or corticosterone” value (“inhibitory effect on the secretion” for short) in data set [2] is recorded as “reduce the secretion”.

Turning to `CCOC(=O)c1cccn1[C@H](C)c1ccccc1` [Formula 8], in data set [3], the “anesthetic effect / activity” value is “decreased anesthetic activity” and the duration of action entry is “prolonged duration of action”. Further, the “inhibitory effect on the secretion” value in data set [2] is “little inhibition”.

For `COC(=O)CCOC(=O)c1cncn1[C@H](C)c1ccccc1` [Formula 7, Methoxycarbonyl-etomidate], the “anesthetic effect / activity” value in data set [3] is given as “drastically decreased anesthetic effect”. Further, the “inhibitory effect on the secretion” value in data set [2] is “lower inhibitory effect”.
